From patent publication US20250223300A1, “MACROCYCLIC COMPOUND AND PHARMACEUTICAL COMPOSITION AND USE THEREOF” (BETTA PHARMACEUTICALS CO., LTD, priority 2022, published 2025) come the findings set out here.

Data set [1] concerns A431 cell carrying EGFR WT. Description: Cell proliferation inhibitory activity assay, A431. The class given is cell-based. Particulars: cell proliferation inhibition, 72 hours, luminescence. As for the experimental part:
(§1) Suspension cells Ba/F3 (EGFR. Dell9/T790M/C797S), Ba/F3 (EGFR L858R/T790M/C797S), Ba/F3 (EGFR Del19/C797S), and Ba/F3 (EGFR L858R/C797S) overexpressing different EGFR mutations were cultured in PRMI 1640 containing 10% FBS and 1% PS, and adherent cells A431 carrying EGFR WT were cultured in DMEM containing 10% FBS and 1% PS. The experimental steps for compound activity detection are as follows: • (1) Take adherent cells in the logarithmic growth phase, digest them with trypsin count them, and then inoculate them into a 96-well plate at a certain density. Incubate them overnight at 37° C. and 5% CO2 to allow them to adhere.
(§2) Y=minimum+([…])/(1+10^((Log IC50−X)*slope)); • X: logarithm of compound concentration; Y: cell survival inhibition rate.

Data set [2] has as its target Ba/F3 cells overexpressing EGFR Del19/T790M/C797S (Homo sapiens, UniProt P00533, T790M/C797S, cells depend on it, form not given). Description: Cell proliferation inhibitory activity assay, Ba/F3 EGFR Del19/T790M/C797S. In kind it is cell-based. Particulars: cell proliferation inhibition, 72 hours, luminescence; read-out: Ba/F3 cells overexpressing different EGFR mutations IC50 (nM) Del19/T790M/C797S. As for the experimental part:
as §1, §2

A short description of a further data set: Pharmacokinetics in rats. The class given is in vivo, rat. Particulars: male SD rats, 5 mg/kg orally by gavage, plasma. As to the method:
Male SD rats (200-300 g) were used for rat PK studies. Compounds were prepared and prepared immediately before use. Rats were administered intravenously or orally by gavage. Blood was collected from the rats through the orbital venous plexus, and 100 μL whole blood was collected into K2-EDTA tubes at each time point.
1 mg/kg was given intravenously, and whole blood was collected at 0.083, 0,25, $0.5, 1, 2, 4, 7, 24, 48, and 72 h after administration; 5 mg/kg were given orally by gavage, and whole blood was collected at 0.25, 0.5, 1, 2, 4, 7, 24, 48, and 72 h after administration in different batches, or the rats were killed at 4 and 24 h to obtain brains. The brain tissue samples were homogenized by adding 4 times the volume of buffer, and the whole blood and brain tissue samples were stored in a −80° C. refrigerator for later use. After the above whole blood and brain tissue samples were precipitated with acetonitrile for protein, the supernatant was taken and mixed with water in a ratio of 1:2, and 10 μL was taken for LC-MS/MS detection.

In data set [3] the target is Ba/F3 (EGFR L858R/T790M/C797S) (Homo sapiens, UniProt P00533, T790M/C797S/L858R, cells depend on it). Description: Cell proliferation inhibitory activity assay, Ba/F3 EGFR L858R/T790M/C797S. In kind it is cell-based. Particulars: cell proliferation inhibition, 72 hours, luminescence; read-out: Ba/F3 cells overexpressing different EGFR mutations IC50 (nM) L858R/T790M/C797S. As for the experimental part:
as §1, §2

The next data set is described as follows: Pharmacokinetics in mice. The class given is in vivo, mouse. To be noted: female BALB/c mice, 5 mg/kg orally by gavage, plasma. As to the method:
Mouse PK studies were performed using female BALB/c mice (20-30 g). Compounds were prepared and prepared immediately before use. Mice were administered intravenously or orally by gavage. Blood was collected from the mouse orbital venous plexus, and 100 μL of whole blood was transferred to a K2-EDTA tube at each time point.
1 mg/kg was given intravenously, and whole blood was collected at 0.083, 0.25, 0.5, 1, 2, 4, 6 and 24 h after administration; 5 mg/kg were given orally by gavage, and whole blood was collected at 0.25, 0.5, 1, 2, 4, 6, 24 h after administration in different batches, or the mice were killed at 2, 4 and 6 h to obtain brains. Whole blood samples were centrifuged and plasma was separated; brain tissue samples were homogenized by adding 4 times the volume of buffer, and the plasma and brain tissue samples were stored in a −80° C. refrigerator for later use. After the above plasma and brain tissue samples were precipitated with acetonitrile for protein, the supernatant was taken and mixed with water in a 1:1 ratio, and 10 μL was taken for LC-MS/MS detection.

The next data set addresses Ba/F3 (EGFR Del19/C797S) (Homo sapiens, UniProt P00533, C797S, cells depend on it, form not given). Nature of the data set: Cell proliferation inhibitory activity assay, Ba/F3 EGFR Del19/C797S. The class given is cell-based. To be noted: cell proliferation inhibition, 72 hours, luminescence; read-out: Ba/F3 cells overexpressing different EGFR mutations IC50 (nM) Del19/C797S. As to the method:
as §1, §2

Another data set deals with Ba/F3 (EGFR L858R/C797S) (Homo sapiens, UniProt P00533, C797S/L858R, cells depend on it). Nature of the data set: Cell proliferation inhibitory activity assay, Ba/F3 EGFR L858R/C797S. The class given is cell-based. To be noted: cell proliferation inhibition, 72 hours, luminescence; read-out: Ba/F3 cells overexpressing different EGFR mutations IC50 (nM) L858R/C797S. As for the experimental part:
as §1, §2

In the case of “5^6-(9-((2R,6S)-2,6- dimethyl- tetrahydro-2H- pyran-4-yl)-3,9- diazaspiro[5.5] undecan-3-yl)- 2^6-methyl-5^1H- 11-oxa-4-aza- 5(2,1)-benzo [d]imidazola- 1(3,4),2(2,4)- dipyridinacyclo- undecaphan- 3-one [Example 91]”, the midpoint of inhibition in data set [1], the IC50, lay at 759 nM. Moreover, the GI50 was determined as 1.7 nM in data set [2], 3.4 nM in data set [3], 0.64 nM at Ba/F3 (EGFR Del19/C797S) and 5.2 nM on Ba/F3 (EGFR L858R/C797S). Moreover, the “AUClast” value turned out to be 1611 ng·h/mL in the data set “Pharmacokinetics in rats” and 1495 ng·h/mL in the data set “Pharmacokinetics in mice”. In addition, the highest concentration (Cmax) is 42.5 ng/mL in “Pharmacokinetics in rats” and 41.9 ng/mL in “Pharmacokinetics in mice”. Moreover, the “T1/2” value in the data set “Pharmacokinetics in rats” is 26.4 h.
In “Pharmacokinetics in rats” (rat, po), `CO[C@@H]1CCC(N2CCC3(CCN(c4ccc5nc6n(c5c4)CCCCCOc4ccncc4-c4cc(cc(C)n4)C(=O)N6)CC3)CC2)C[C@@H]1F` (stereo partly drawn) [Example 15, 5^6-(9-((3S,4R)-3-fluoro-4-methoxypiperidin-1-yl)-3-azaspiro[5.5]undecan-3-yl)-2^6-methyl-5^1H-11-oxa-4-aza-5(2,1)-benzo[d]imidazola-1(3,4),2(2,4) -dipyridinacycloundecaphan-3-one] returned an AUC(0-t) of 3390 ng·h/mL. Also, the Cmax in “Pharmacokinetics in rats” (rat, po, read-out: Cmax) stood at 104 ng/mL.
Turning to `Cc1cc2cc(n1)-c1cnccc1OCCCCCn1c(nc3ccc(N4CCC5(CC4)CCN(C4COC4)CC5)cc31)NC2=O` [Example 52, 2^6-methyl-5^6-(9-(oxetan-3-yl)-3,9-diazaspiro [5.5]undecan-3-yl)-5^1H-11-oxa-4-aza-5(2,1)-benzo[d] imidazola-1(3,4),2(2,4)-dipyridinacyclo-undecaphan-3-one], the IC50 in data set [1] (Homo sapiens, A-431) was 700 nM. Also, the GI50 in data set [2] worked out at 0.8 nM; in data set [3] it was 1.6 nM; on Ba/F3 (EGFR Del19/C797S), 0.5 nM; at Ba/F3 (EGFR L858R/C797S) it was 4.7 nM. For the same molecule, the AUC(0-t) came out at 917 ng·h/mL in the data set “Pharmacokinetics in rats” (rat, po) and 3460 ng·h/mL in the data set “Pharmacokinetics in mice” (mouse, po). Further, the half-life was 12.4 h in “Pharmacokinetics in rats” (rat, po) and 20.1 h in “Pharmacokinetics in mice” (mouse, po). Also, the highest concentration (Cmax) in the data set “Pharmacokinetics in rats” (rat, po, read-out: Cmax) turned out to be 57.5 ng/mL; in the data set “Pharmacokinetics in mice” (mouse, po, read-out: Cmax), 215 ng/mL.
As for `Cc1cc2cc(n1)-c1cnc(F)cc1OCCC[C@@H](C)Cn1c(nc3ccc(N4CCC5(CC4)CCN(C4COC4)CC5)cc31)NC2=O` [Example 81, (R)-1^6-fluoro-2^6,7-dimethyl-5^6-(9-(oxetan-3-yl)-3,9-diazaspiro [5.5]undecan-3-yl)-5^1H-11-oxa-4-aza-5(2,1)-benzo[d] imidazola-1(3,4),2(2,4)-dipyridinacyclo-undecaphan-3-one], half-maximal inhibition in data set [1] (Homo sapiens, A-431) (IC50) required 1750 nM. Besides, the GI50 in data set [2] is 1.4 nM; in data set [3], 4.3 nM; on Ba/F3 (EGFR Del19/C797S) it was 0.1 nM; on Ba/F3 (EGFR L858R/C797S) it was 5.3 nM. In “Pharmacokinetics in rats” (rat, po), this molecule displayed an AUC(0-t) of 1840 ng·h/mL. In the data set “Pharmacokinetics in rats” (rat, po), this molecule had a half-life of 18.8 h. Besides, in “Pharmacokinetics in rats” (rat, po, read-out: Cmax), the Cmax stood at 116 ng/mL.
`Cc1cc2cc(n1)-c1cnccc1OCCCCCn1c(nc3ccc(N4CCC5(CCN(CCN(C)C)CC5)CC4)cc31)NC2=O` [Example 87, 5^6-(9-(2-(dimethyl-amino)ethyl)-3,9-diazaspiro [5.5]undecan-3-yl)-2^6-methyl-5^1H-11-oxa-4-aza-5(2,1)-benzo [d]imidazola-1(3,4),2(2,4)-dipyridinacyclo-undecaphan-3-one]: inhibition in data set [1] (Homo sapiens, A-431) was half-maximal at 1410 nM (IC50). The GI50 in data set [2] was found to be 5.4 nM; in data set [3], 11 nM; on Ba/F3 (EGFR Del19/C797S), 5.8 nM; at Ba/F3 (EGFR L858R/C797S), 21 nM.
For `Cc1cc2cc(n1)-c1cnccc1OCCCCCn1c(nc3ccc(N4CCC5(CC4)CCN(C4CC4)CC5)cc31)NC2=O` [Example 89, 5^6-(9-cyclopropyl-3,9-diazaspiro [5.5]undecan-3-yl)-2^6-methyl-5^1H-11-oxa-4-aza-5(2,1)-benzo[d] imidazola-1(3,4),2(2,4)-dipyridinacyclo-undecaphan-3-one], in that order: 1210 nM, 1.8 nM, 4.6 nM, 0.71 nM and 6.5 nM.
The molecule `COC(C)(C)CC(C)N1CCC2(CCN(c3ccc4nc5n(c4c3)CCCCCOc3ccncc3-c3cc(cc(C)n3)C(=O)N5)CC2)CC1` (stereo not drawn) [Example 90, 5^6-(9-(4-methoxy-4-methylpentan-2-yl)-3,9-diazaspiro[5.5]undecan-3-yl)-2^6-methyl-5^1H-11-oxa-4-aza-5(2,1)-benzo[d] imidazola-1(3,4),2(2,4)-dipyridinacyclo-undecaphan-3-one] had an IC50 in data set [1] (Homo sapiens, A-431) of 733 nM. The GI50 was 4.2 nM in data set [2], 12 nM in data set [3], 4 nM at Ba/F3 (EGFR Del19/C797S) and 31 nM on Ba/F3 (EGFR L858R/C797S).
In the case of `Cc1cc2cc(n1)-c1cnn(C)c1OCCC[C@@H](C)CN1/C(=N/C2=O)Nc2ccc(CN3CCN(C)CC3)cc21` [compound 1, reference compound], the AUC(0-t) in the data set “Pharmacokinetics in rats” (rat, po) was 96 ng·h/mL; in “Pharmacokinetics in mice” (mouse, po) it was 361 ng·h/mL. For the same molecule, the half-life in “Pharmacokinetics in rats” (rat, po) is 2.94 h; in the data set “Pharmacokinetics in mice” (mouse, po) it was 4.22 h. In addition, the Cmax is 10.5 ng/mL in the data set “Pharmacokinetics in rats” (rat, po, read-out: Cmax) and 32.8 ng/mL in the data set “Pharmacokinetics in mice” (mouse, po, read-out: Cmax).
`Cc1cc2cc(n1)-c1cnn(C)c1OCCC[C@@H](C)CN1/C(=N/C2=O)Nc2ccc(CN3CCC4(CC3)COC4)cc21` [compound 2, reference compound] registered an AUC(0-t) in “Pharmacokinetics in rats” (rat, po) of 132 ng·h/mL. Besides, in “Pharmacokinetics in rats” (rat, po, read-out: Cmax), the Cmax turned out to be 27.3 ng/mL.

Broadly, the IC50 is the concentration at which inhibition is half-maximal. A high value points to weaker potency. The Cmax is the highest concentration seen after dosing. For orientation: AUC(0-t) means the area under the concentration-time curve up to a stated or last time point. Read a low AUC(0-t) as low exposure. The half-life is the time in which the quantity being followed falls by half. The low end stands for fast loss, the high end for slow loss.
